In patent publication US9955691B2, “Macrocyclic picolinamides as fungicides” (DOW AGROSCIENCES LLC, priority 2014, dated 2018):
Like-named read-outs stand apart in the source and are kept apart here.

How the values were obtained:
Assay type in all cases: in vivo
Alternaria solani = assay: Fungicidal activity: Tomato Early Blight (ALTESO); conditions: 100 ppm, 1 DP (1 Day Protectant)
Description: Technical grades of materials were dissolved in acetone, which were then mixed with nine volumes of water containing 110 ppm Triton X-100. The fungicide solutions were applied onto wheat seedlings using an automated booth sprayer to run-off. All sprayed plants were allowed to air dry prior to further handling. All fungicides were evaluated using the aforementioned method for their activity vs. all target diseases, unless stated otherwise. Wheat leaf blotch and brown rust activity were also evaluated using track spray applications, in which case the fungicides were formulated as EC formulations, containing 0.1% Trycol 5941 in the spray solutions. Wheat plants (variety Yuma) were grown from seed in a greenhouse in 50% mineral soil/50% soil-less Metro mix until the first leaf was fully emerged, with 7-10 seedlings per pot. These plants were inoculated with an aqueous spore suspension of Septoria tritici either prior to or after fungicide treatments. After inoculation the plants were kept in 100% relative humidity (one day in a dark dew chamber followed by two to three days in a lighted dew chamber at 20° C.) to permit spores to germinate and infect the leaf. The plants were then transferred to a greenhouse set at 20° C. for disease to develop. When disease symptoms were fully expressed on the 1st leaves of untreated plants, infection levels were assessed on a scale of 0 to 100 percent disease severity. Percent disease control was calculated using the ratio of disease severity on treated plants relative to untreated plants. Evaluation of Fungicidal Activity: Tomato Early Blight (Alternaria solani; Bayer Code […]) Tomato plants (variety Outdoor Girl) were propagated in soil-less Metro mix, with each pot having one plant, and used when 12 to 14 days old. Test plants were inoculated with an aqueous spore suspension of Alternaria solani 24 hr after fungicide treatments. After inoculation the plants were kept in 100% relative humidity (one day in a dark dew chamber followed by two to three days in a lighted dew chamber at 20° C.) to permit spores to germinate and infect the leaf. The plants were then transferred to a growth room at 22° C. for disease to develop. Fungicide formulation, application and disease assessment on the sprayed leaves followed the procedures as described in the Example A.

[1] = tested on: Glomerella lagenarium; Anamorph: Colletotrichum lagenarium; assay: Fungicidal activity: Cucumber Anthracnose (COLLLA); conditions: 100 ppm, 1 DP (1 Day Protectant)
Description: Technical grades of materials were dissolved in acetone, which were then mixed with nine volumes of water containing 110 ppm Triton X-100. The fungicide solutions were applied onto wheat seedlings using an automated booth sprayer to run-off. All sprayed plants were allowed to air dry prior to further handling. All fungicides were evaluated using the aforementioned method for their activity vs. all target diseases, unless stated otherwise. Wheat leaf blotch and brown rust activity were also evaluated using track spray applications, in which case the fungicides were formulated as EC formulations, containing 0.1% Trycol 5941 in the spray solutions. Wheat plants (variety Yuma) were grown from seed in a greenhouse in 50% mineral soil/50% soil-less Metro mix until the first leaf was fully emerged, with 7-10 seedlings per pot. These plants were inoculated with an aqueous spore suspension of Septoria tritici either prior to or after fungicide treatments. After inoculation the plants were kept in 100% relative humidity (one day in a dark dew chamber followed by two to three days in a lighted dew chamber at 20° C.) to permit spores to germinate and infect the leaf. The plants were then transferred to a greenhouse set at 20° C. for disease to develop. When disease symptoms were fully expressed on the 1st leaves of untreated plants, infection levels were assessed on a scale of 0 to 100 percent disease severity. Percent disease control was calculated using the ratio of disease severity on treated plants relative to untreated plants. Evaluation of Fungicidal Activity: Cucumber Anthracnose (Glomerella lagenarium; Anamorph: Colletotrichum lagenarium; Bayer Code COLLLA) Cucumber seedlings (variety Bush Pickle) were propagated in soil-less Metro mix, with each pot having one plant, and used in the test when 12 to 14 days old. Test plants were inoculated with an aqueous spore suspension of Colletotrichum lagenarium 24 hr after fungicide treatments. After inoculation the plants were kept in a dew room at 22° C. with 100% relative humidity for 48 hr to permit spores to germinate and infect the leaf. The plants were then transferred to a growth room set at 22° C. for disease to develop. Fungicide formulation, application and disease assessment on the sprayed leaves followed the procedures as described in the Example A.

Puccinia triticina = assay: Fungicidal activity: Wheat Brown Rust (PUCCRT); conditions: for pest or weed control at 121.5 g/ha: Low Volume (121.5 g/H); for pest or weed control at 100 µg/mL: High Volume (100 ppm)
Method in brief: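 Percent control of brown rust was derived from 0-100% severity on treated versus untreated first leaves. Yuma wheat seedlings were spray-treated to run-off (acetone/water, Triton X-100) and inoculated with P. triticina spores before or after treatment, then held overnight in dark dew at 22° C and moved to a 24° C greenhouse.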

[2] = 24 h, 1 Day Protectant, read-out: PUCCRT 1 DP disease control
[3] = 72 h, 3 Day Curative, read-out: PUCCRT 3 DC disease control

Row | Structure (SMILES) | ALTESO disease control rating (Alternaria solani) | COLLLA disease control rating [1] | pest or weed control at 121.5 g/ha (Puccinia triticina; [2]) | pest or weed control at 121.5 g/ha (Puccinia triticina; [3]) | pest or weed control at 100 µg/mL (Puccinia triticina; [2]) | pest or weed control at 100 µg/mL (Puccinia triticina; [3])
1 | CCCC[C@@H]1[C@@H](Cc2ccc(C(F)(F)F)cc2)COC[C@H](NC(=O)c2nccc(OC)c2OCOC(C)=O)C(=O)O[C@H]1C [compound 16] | A (>70) | A (>70) | > 70% | > 70% | – | –
2 | CCCC[C@@H]1[C@@H](Cc2ccccc2)COC[C@H](NC(=O)c2nccc(OC)c2OCOC(=O)C(C)C)C(=O)O[C@H]1C [compound 1] | A (>70) | A (>70) | > 70% | < 70% | > 70% | > 70%
3 | COc1ccnc(C(=O)N[C@H]2COC[C@H](Cc3ccccc3)[C@@H](Cc3ccccc3)[C@H](C)OC2=O)c1OC(C)=O [compound 27] | A (>70) | A (>70) | > 70% | > 70% | – | –
4 | COc1ccnc(C(=O)N[C@H]2COC[C@H](c3ccccc3)[C@@H](c3ccccc3)[C@H](C)OC2=O)c1OCOC(C)=O [compound 7] | A (>70) | A (>70) | > 70% | > 70% | > 70% | > 70%
5 | COc1ccnc(C(=O)N[C@H]2COC[C@H](Cc3ccccc3)[C@@H](Cc3ccccc3)[C@H](C)OC2=O)c1OCOC(C)=O [Cmpd. 3, ((2-(((3S,7R,8R,9S)-7,8-dibenzyl-9-methyl-2-oxo-1,5-dioxonan-3-yl)carbamoyl)-4-methoxypyridin-3-yl)oxy)methyl acetate] | A (>70) | A (>70) | > 70% | > 70% | > 70% | < 70%
6 | COc1ccnc(C(=O)N[C@H]2COC[C@H](CC3CC3)[C@@H](c3ccccc3)[C@H](C)OC2=O)c1OC(C)=O [compound 100] | A (>70) | A (>70) | > 70% | > 70% | – | –
